Legend:
SYK kinase = molecular target: T1, SYK kinase (Homo sapiens, UniProt P43405); experiment: SYK assay (OMNIA Kinase Assay, Invitrogen); type: biochemical; conditions: apparent Ki calculated from the IC50 using the Cheng-Prusoff equation; 1 mM ATP, 10 μM Peptide Substrate; read-out: SYK Activities: Ki
T1 construct: purchased Invitrogen, Carlsbad
Procedure, shortened: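 Reaction velocities were measured from kinetic fluorescence reads (360/485 nm, every 30 s over 30 min) of Mg2+-chelated SOX signal. Conditions were 1 mM ATP, 10 μM Omnia Tyr 7 peptide and 0.2 mM DTT at 30° C. Sigmoidal IC50 fits were converted to apparent Ki using Cheng-Prusoff.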

MYLK = MYLK (Homo sapiens, UniProt Q15746); experiment: MYLK assay (LanthaScreen Eu Kinase Binding Assay); conditions: 5 nM MYLK, 30 nM tracer 236, RT 1 h; read-out: MYLK Activites: IC50
MYLK, sequence (Q15746 whole entry): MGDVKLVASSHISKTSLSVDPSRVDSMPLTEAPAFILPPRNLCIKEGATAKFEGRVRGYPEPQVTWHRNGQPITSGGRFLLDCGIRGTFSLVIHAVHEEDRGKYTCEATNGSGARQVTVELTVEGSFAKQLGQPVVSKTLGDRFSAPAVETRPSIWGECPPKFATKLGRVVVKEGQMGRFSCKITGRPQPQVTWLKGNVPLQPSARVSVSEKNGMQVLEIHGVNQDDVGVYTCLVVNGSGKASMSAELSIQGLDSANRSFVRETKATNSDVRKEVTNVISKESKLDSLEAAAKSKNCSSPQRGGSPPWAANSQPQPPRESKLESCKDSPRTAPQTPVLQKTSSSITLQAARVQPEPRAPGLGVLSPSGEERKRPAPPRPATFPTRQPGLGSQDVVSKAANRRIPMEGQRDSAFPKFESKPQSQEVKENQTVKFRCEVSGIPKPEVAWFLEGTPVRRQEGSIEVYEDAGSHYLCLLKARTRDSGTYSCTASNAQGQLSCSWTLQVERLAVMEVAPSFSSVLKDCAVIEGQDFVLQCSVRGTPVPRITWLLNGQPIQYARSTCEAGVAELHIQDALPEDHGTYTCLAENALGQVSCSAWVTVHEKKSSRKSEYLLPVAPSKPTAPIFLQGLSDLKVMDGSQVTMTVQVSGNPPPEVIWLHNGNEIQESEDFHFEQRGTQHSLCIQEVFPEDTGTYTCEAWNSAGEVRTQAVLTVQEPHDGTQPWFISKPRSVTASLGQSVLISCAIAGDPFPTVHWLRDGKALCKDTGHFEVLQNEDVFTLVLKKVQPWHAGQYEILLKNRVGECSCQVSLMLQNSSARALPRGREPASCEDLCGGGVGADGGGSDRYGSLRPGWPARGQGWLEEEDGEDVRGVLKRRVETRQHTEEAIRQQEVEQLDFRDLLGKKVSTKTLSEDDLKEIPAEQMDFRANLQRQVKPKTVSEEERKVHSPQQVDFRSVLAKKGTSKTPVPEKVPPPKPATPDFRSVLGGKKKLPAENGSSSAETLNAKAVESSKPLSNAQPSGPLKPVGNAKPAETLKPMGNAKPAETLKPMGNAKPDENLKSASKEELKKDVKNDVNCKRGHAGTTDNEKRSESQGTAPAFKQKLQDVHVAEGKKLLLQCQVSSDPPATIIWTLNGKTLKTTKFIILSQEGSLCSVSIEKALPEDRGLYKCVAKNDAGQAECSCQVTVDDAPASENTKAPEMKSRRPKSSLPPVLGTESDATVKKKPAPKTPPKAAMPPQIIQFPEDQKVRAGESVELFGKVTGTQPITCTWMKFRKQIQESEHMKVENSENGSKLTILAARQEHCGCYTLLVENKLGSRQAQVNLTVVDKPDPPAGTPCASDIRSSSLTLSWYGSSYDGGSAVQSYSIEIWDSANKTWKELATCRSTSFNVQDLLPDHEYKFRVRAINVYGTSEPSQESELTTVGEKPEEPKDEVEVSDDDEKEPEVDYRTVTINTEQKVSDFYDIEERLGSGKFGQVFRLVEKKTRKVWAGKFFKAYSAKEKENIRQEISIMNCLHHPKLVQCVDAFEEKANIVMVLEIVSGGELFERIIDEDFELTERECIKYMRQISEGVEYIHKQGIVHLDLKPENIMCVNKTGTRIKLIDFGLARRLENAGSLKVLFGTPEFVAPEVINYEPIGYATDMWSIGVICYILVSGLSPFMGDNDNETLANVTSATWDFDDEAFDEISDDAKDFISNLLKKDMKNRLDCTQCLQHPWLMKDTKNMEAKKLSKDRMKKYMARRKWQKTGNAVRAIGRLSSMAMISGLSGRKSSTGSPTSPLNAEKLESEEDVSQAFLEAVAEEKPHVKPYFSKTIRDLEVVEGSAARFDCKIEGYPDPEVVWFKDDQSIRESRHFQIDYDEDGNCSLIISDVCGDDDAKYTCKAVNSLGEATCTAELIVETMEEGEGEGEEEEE
Description: In the assay LanthaScreen™ Eu Kinase Binding Assay by Invitrogen Corporation (Carlsbad) the effect of invention of a compound on the phosphorylation is determined by measurement of fluorescence intensity emission ratio based on the binding and displacement of a proprietary, Alexa Fluor® 647-labeled, ATP-competitive kinase inhibitor scaffold (kinase tracer) to the kinase of interest as described above.
To the wells of an 384 well small volume plate (Greiner, Frickenhausen) are added (i) the compound under test in 5% DMSO/distilled water (5 μl), (ii) 5 μl of the kinase antibody mixture resulting in a final concentration 5 nM MYLK, 2 nM EU-Anti-GST antibody in 1× kinase buffer A. The reaction was started with addition of (iii) 5 μl resulting in a final concentration of 30 nM tracer 236. The assay plate was incubated at RT for 1 h and fluorescence intensitiy readings were collected using a TECAN M1000 at two wavelengthes of λex 340/λem 615 nm and λex 340/λem 665 nm with a delay time of 100 μs and an integration time of 200 μs after 60 minutes. The emission ratio was calculated by division of the acceptor/tracer emission ([…]) by the antibody/donor emission ([…]). The inhibitor concentration was plotted versus the emission ratio to determine the IC50 using XLFit 5.0 (IDBS, Guildford) to fit to a sigmoidal dose response curve with a variable slope.

LRRK2 = LRRK2 (Homo sapiens, UniProt Q5S007); experiment: LRRK2 assay (LanthaScreen Eu Kinase Binding Assay); conditions: 5 nM LRRK2, 10 nM tracer 236, RT 1 h; read-out: LRRK2 Activites: IC50
LRRK2, sequence (Q5S007 970-2527 limits assumed): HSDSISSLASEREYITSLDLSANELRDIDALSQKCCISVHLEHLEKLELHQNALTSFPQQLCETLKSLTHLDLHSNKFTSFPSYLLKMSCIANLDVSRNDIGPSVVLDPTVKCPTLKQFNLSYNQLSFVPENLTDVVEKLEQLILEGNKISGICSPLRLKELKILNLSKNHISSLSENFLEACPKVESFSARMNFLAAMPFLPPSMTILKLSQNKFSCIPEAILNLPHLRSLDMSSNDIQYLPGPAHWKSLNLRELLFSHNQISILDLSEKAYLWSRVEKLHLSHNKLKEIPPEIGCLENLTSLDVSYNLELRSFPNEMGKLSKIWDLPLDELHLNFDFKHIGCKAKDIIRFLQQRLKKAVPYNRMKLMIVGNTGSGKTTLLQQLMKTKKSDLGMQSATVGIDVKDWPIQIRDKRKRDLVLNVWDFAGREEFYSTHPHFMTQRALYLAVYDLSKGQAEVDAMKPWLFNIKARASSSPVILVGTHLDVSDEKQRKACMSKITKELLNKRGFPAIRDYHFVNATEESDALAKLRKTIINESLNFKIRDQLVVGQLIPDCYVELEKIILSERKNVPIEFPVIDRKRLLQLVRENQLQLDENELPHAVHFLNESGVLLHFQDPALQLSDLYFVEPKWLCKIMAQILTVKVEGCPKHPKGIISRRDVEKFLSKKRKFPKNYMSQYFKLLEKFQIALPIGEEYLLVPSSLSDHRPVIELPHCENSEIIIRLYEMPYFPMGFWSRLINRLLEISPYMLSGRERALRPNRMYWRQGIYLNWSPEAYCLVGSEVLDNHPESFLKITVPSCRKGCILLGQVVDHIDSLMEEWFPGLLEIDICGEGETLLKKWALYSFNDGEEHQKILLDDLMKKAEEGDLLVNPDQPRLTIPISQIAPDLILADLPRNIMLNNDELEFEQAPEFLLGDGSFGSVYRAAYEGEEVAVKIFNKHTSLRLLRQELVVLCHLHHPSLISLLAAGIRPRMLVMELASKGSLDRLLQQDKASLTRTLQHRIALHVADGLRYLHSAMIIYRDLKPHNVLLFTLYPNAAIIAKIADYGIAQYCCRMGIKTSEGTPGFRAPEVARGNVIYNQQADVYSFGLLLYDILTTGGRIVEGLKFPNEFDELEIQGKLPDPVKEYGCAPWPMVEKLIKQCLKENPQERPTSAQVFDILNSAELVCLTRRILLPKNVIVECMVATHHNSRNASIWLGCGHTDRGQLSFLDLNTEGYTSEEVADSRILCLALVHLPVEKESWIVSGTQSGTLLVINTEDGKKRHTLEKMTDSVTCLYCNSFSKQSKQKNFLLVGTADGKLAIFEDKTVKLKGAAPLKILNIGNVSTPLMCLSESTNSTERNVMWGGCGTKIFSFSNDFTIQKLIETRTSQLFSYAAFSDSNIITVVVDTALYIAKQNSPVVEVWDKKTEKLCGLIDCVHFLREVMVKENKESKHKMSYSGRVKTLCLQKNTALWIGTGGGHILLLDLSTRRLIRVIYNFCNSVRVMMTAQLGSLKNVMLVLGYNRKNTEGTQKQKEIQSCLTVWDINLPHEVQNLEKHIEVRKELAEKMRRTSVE
Description: Binding of the tracer to the kinase is detected using a europium-labeled anti-tag antibody, which binds to the kinase of interest. […] Binding of an inhibitor to the kinase competes for binding with the tracer, resulting in a loss of FRET. The fluorescence intensity ratio is directly proportional to the amount of peptide phosphorylation.
The inhibitor concentration was plotted versus the emission ratio to determine the IC50 using XLFit 5.0 (IDBS, Guildford) to fit to a sigmoidal dose response curve with a variable slope.

Row | Ki (SYK kinase) [nM] | IC50 (MYLK) [nM] | IC50 (LRRK2) [nM] | Compound
1 | 10 to 100 | < 5000 |  | Cc1cc(Nc2nc3ccc(Br)cc3c3c[nH]nc23)cc2cn[nH]c12 [Example #41, (8-Bromo-2H-pyrazolo[3,4-c]quinolin-4-yl)-(7-methyl-1H-indazol-5-yl)-amine]
2 | 10 to 100 | < 5000 |  | COc1ccc2nc(Nc3ccc(C(N)=O)cc3)c3n[nH]cc3c2c1 [Example #58, 4-(8-Methoxy-2H-pyrazolo[3,4-c]quinolin-4-ylamino)-benzamide]
3 |  | < 5000 |  | O=C1COc2ccc(Nc3nc4ccc(Br)cc4c4c[nH]nc34)cc2N1 [Example #116, 6-(8-Bromo-2H-pyrazolo[3,4-c]quinolin-4-ylamino)-4H-benzo[1,4]oxazin-3-one]
4 | 100 to 1000 | < 5000 |  | COc1ccc2nc(Nc3nccc(N)n3)c3n[nH]cc3c2c1 [Example #139, N2-(8-methoxy-2H-pyrazolo[3,4-c]quinolin-4-yl)pyrimidine-2,4-diamine]
5 | 100 to 1000 | < 5000 |  | COc1ccc2nc(Nc3ccc4ncc(=O)[nH]c4c3)c3n[nH]cc3c2c1 [Example #194, 7-(8-Methoxy-2H-pyrazolo[3,4-c]quinolin-4-ylamino)-1H-quinoxalin-2-one]
6 | 10 to 100 |  | 100 to 1000 | COc1cccc2c1nc(Nc1ccc3c(c1)NC(=O)CO3)c1n[nH]cc12 [Example #250, 6-((6-methoxy-2H-pyrazolo[3,4-c]quinolin-4-yl)amino)-2H-benzo[b][1,4]oxazin-3(4H)-one]
7 | 10 to 100 |  | 100 to 1000 | COc1ccc2c(c1)nc(Nc1ccc3[nH]ncc3c1)c1n[nH]cc12 [Example #256, (1H-Indazol-5-yl)-(7-methoxy-2H-pyrazolo[3,4-c]quinolin-4-yl)-amine]
8 | 10 to 100 |  | 100 to 1000 | COc1cccc2c1nc(Nc1ccc(C)cc1)c1n[nH]cc12 [Example #274, (6-Methoxy-2H-pyrazolo[3,4-c]quinolin-4-yl)-p-tolyl-amine]
9 | 100 to 1000 |  | 100 to 1000 | COc1ccc2nc(Nc3ccc(OCC(=O)O)c(OC)c3)c3n[nH]cc3c2c1 [Example #279, 2-(2-methoxy-4-((8-methoxy-2H-pyrazolo[3,4-c]quinolin-4-yl)amino)phenoxy)acetic-acid]
10 | 100 to 1000 |  | 100 to 1000 | COc1ccc2nc(Nc3ccc(CC(=O)O)cc3)c3n[nH]cc3c2c1 [Example #285, 2-(4-((8-methoxy-2H-pyrazolo[3,4-c]quinolin-4-yl)amino)phenyl)acetic acid]
11 | < 10 |  | 10 to 100 | COc1ccc2nc(Nc3ccc(N4CCSCC4)cc3)c3[nH]ncc3c2c1 [Example #293, 8-methoxy-N-(4-thiomorpholinophenyl)-2H-pyrazolo[3,4-c]quinolin-4-amine]
12 | 10 to 100 |  | < 10 | COc1ccc2nc(Nc3ccc(C(=O)N4CCC4)cc3)c3n[nH]cc3c2c1 [Example #302, azetidin-1-yl(4-((8-methoxy-2H-pyrazolo[3,4-c]quinolin-4-yl)amino)phenyl)methanone]
13 | 10 to 100 |  | 100 to 1000 | COc1ccc2nc(Nc3ccc(F)cc3)c3n[nH]cc3c2c1 [Example #310, N-(4-fluorophenyl)-8-methoxy-2H-pyrazolo[3,4-c]quinolin-4-amine]
14 | 100 to 1000 |  | 100 to 1000 | COc1ccc2nc(Nc3ccc(NC(=O)C(F)(F)F)cc3)c3n[nH]cc3c2c1 [Example #312, 2,2,2-trifluoro-N-(4-((8-methoxy-2H-pyrazolo[3,4-c]quinolin-4-yl)amino)phenyl)acetamide]
15 | 10 to 100 |  | 10 to 100 | COc1ccc2nc(Nc3ccc4c(c3)N=C(NCCCO)CO4)c3n[nH]cc3c2c1 [Example #313, 3-((6-((8-methoxy-2H-pyrazolo[3,4-c]quinolin-4-yl)amino)-2H-benzo[b][1,4]oxazin-3-yl)amino)propan-1-ol]
16 | 10 to 100 |  | 10 to 100 | COc1ccc2nc(Nc3ccc4c(c3)N=C(NCCc3ccccc3)CO4)c3n[nH]cc3c2c1 [Example #314, N6-(8-methoxy-2H-pyrazolo[3,4-c]quinolin-4-yl)-N3-phenethyl-2H-benzo[b][1,4]oxazine-3,6-diamine]

Row | Ki (SYK kinase) [nM] | IC50 (MYLK) [nM] | IC50 (LRRK2) [nM] | Compound
17 | 10 to 100 |  | 100 to 1000 | COc1ccc2nc(Nc3cc(F)c(F)c(F)c3)c3n[nH]cc3c2c1 [Example #317, 8-methoxy-N-(3,4,5-trifluorophenyl)-2H-pyrazolo[3,4-c]quinolin-4-amine]
18 | 10 to 100 |  | 100 to 1000 | COc1ccc2nc(Nc3ccc(N4CCOCC4)c(OC)c3)c3n[nH]cc3c2c1 [Example #319, 8-methoxy-N-(3-methoxy-4-morpholinophenyl)-2H-pyrazolo[3,4-c]quinolin-4-amine]
19 | 100 to 1000 |  | 100 to 1000 | COc1ccc2nc(Nc3ccc(C(O)(C(F)(F)F)C(F)(F)F)cc3)c3n[nH]cc3c2c1 [Example #321, 1,1,1,3,3,3-hexafluoro-2-(4-((8-methoxy-2H-pyrazolo[3,4-c]quinolin-4-yl)amino)phenyl)propan-2-ol]
20 |  | < 5000 |  | O=C(c1ccc(Nc2nc3ccc(F)cc3c3cn[nH]c23)cc1)N1CCCC1 [Example #322, (4-((8-fluoro-3H-pyrazolo[3,4-c]quinolin-4-yl)amino)phenyl) (pyrrolidin-1-yl)methanone]
21 | 10 to 100 |  | 100 to 1000 | Fc1ccc2nc(Nc3ccc(N4CCOCC4)cc3)c3[nH]ncc3c2c1 [Example #325, 8-fluoro-N-(4-morpholinophenyl)-3H-pyrazolo[3,4-c]quinolin-4-amine]
22 | 100 to 1000 |  | 100 to 1000 | COc1ccc2nc(Nc3ccc(OC(F)F)c(OC)c3)c3n[nH]cc3c2c1 [Example #328, N-(4-(difluoromethoxy)-3-methoxyphenyl)-8-methoxy-2H-pyrazolo[3,4-c]quinolin-4-amine]
23 | 10 to 100 |  | 100 to 1000 | COc1ccc2nc(Nc3ccc(S(=O)(=O)N(C)C)cc3)c3n[nH]cc3c2c1 [Example #343, 4-((8-methoxy-2H-pyrazolo[3,4-c]quinolin-4-yl)amino)-N,N-dimethylbenzenesulfonamide]
24 | 10 to 100 |  | 10 to 100 | COc1ccc2nc(Nc3cccc(S(=O)(=O)NC4CC4)c3)c3n[nH]cc3c2c1 [Example #344, N-cyclopropyl-3-((8-methoxy-2H-pyrazolo[3,4-c]quinolin-4-yl)amino)benzenesulfonamide]
25 | 100 to 1000 |  | 100 to 1000 | COc1ccc2nc(Nc3cccc(S(=O)(=O)CCO)c3)c3n[nH]cc3c2c1 [Example #351, 2-((3-((8-methoxy-2H-pyrazolo[3,4-c]quinolin-4-yl)amino)phenyl)sulfonyl)ethan-1-ol]
26 | 10 to 100 |  | 100 to 1000 | Ic1ccc2nc(Nc3ccc(N4CCOCC4)cc3)c3[nH]ncc3c2c1 [Example #355, 8-iodo-N-(4-morpholinophenyl)-3H-pyrazolo[3,4-c]quinolin-4-amine]
27 | 100 to 1000 |  | 100 to 1000 | O=C(c1ccc(Nc2nc3ccc(I)cc3c3cn[nH]c23)cc1)N1CCCC1 [Example #356, (4-((8-iodo-3H-pyrazolo[3,4-c]quinolin-4-yl)amino)phenyl)(pyrrolidin-1-yl)methanone]
28 | 10 to 100 |  | 100 to 1000 | CC(=O)N1CCN(c2ccc(Nc3nc4ccc(I)cc4c4cn[nH]c34)cc2)CC1 [Example #357, 1-(4-(4-((8-iodo-3H-pyrazolo[3,4-c]quinolin-4-yl)amino)phenyl)piperazin-1-yl)ethan-1-one]
29 |  | < 5000 |  | COc1ccc2nc(Nc3ccc(F)cc3F)c3n[nH]cc3c2c1 [Example #360, N-(2,4-difluorophenyl)-8-methoxy-2H-pyrazolo[3,4-c]quinolin-4-amine]
30 | 100 to 1000 |  | 100 to 1000 | COc1ccc(Nc2nc3cccc(F)c3c3cn[nH]c23)cc1OC [Example #361, N-(3,4-dimethoxyphenyl)-9-fluoro-3H-pyrazolo[3,4-c]quinolin-4-amine]
31 | < 10 |  | 100 to 1000 | CS(=O)(=O)c1cccc(Nc2nc3cccc(F)c3c3cn[nH]c23)c1 [Example #362, 9-fluoro-N-(3-(methylsulfonyl)phenyl)-3H-pyrazolo[3,4-c]quinolin-4-amine]
32 | 10 to 100 |  | 10 to 100 | CN1CCN(C2CCN(c3ccc(Nc4nc5cccc(F)c5c5cn[nH]c45)cc3)CC2)CC1 [Example #363, 9-fluoro-N-(4-(4-(4-methylpiperazin-1-yl)piperidin-1-yl)phenyl)-3H-pyrazolo[3,4-c]quinolin-4-amine]

— US9499535B2, “Kinase inhibitors” (ORIGENIS GMBH, priority 2011, dated 2016)
